# Test results: US6127372A, “Sulfonamide inhibitors of aspartyl protease” (Vertex Pharmaceuticals, Incorporated, priority 1996, dated 2000)
# pKi: −log10 of the molar value.
# Target: HIV-1 protease (Human immunodeficiency virus type 1 group M subtype B, UniProt P04585)
# Experiment: Inhibition constants against HIV-1 protease, method of Pennington et al.
# Format: biochemical
# Settings: not given
row,Compound,pKi
1,COc1ccc(S(=O)(=O)N(CC2CCCC2)C[C@@H](O)CN(CCc2ccccc2)C(=O)Oc2ccccc2)cc1 [Compound 1022],6.77

# Same assay, conditions: HIV-1 protease; method of Pennington et al.; read-out: Ki
row,pKi,Compound
1,7.00,COc1ccc(S(=O)(=O)N(CC2CCCC2)C[C@H](O)CN(CCc2ccccc2)C(=O)O[C@H]2CCOC2)cc1 [Compound 1000]
2,4.80,COc1ccc(S(=O)(=O)N(CC(C)C)CC(O)CNc2ccccc2C(=O)NC(C)(C)C)cc1 (stereo not drawn) [Compound 1002]
3,5.92,COc1ccc(S(=O)(=O)N(CC2CCCC2)C[C@@H](O)CN(CCC(C)C)C(=O)O[C@H]2CCOC2)cc1 [Compound 1003]
4,5.89,COc1ccc(S(=O)(=O)N(CC2CCCC2)C[C@@H](O)CN(CC(C)C)C(=O)O[C@H]2CCOC2)cc1 [Compound 1004]
5,6.33,COc1ccc(S(=O)(=O)N(CC2CCCC2)C[C@@H](O)CN(CCCc2ccccc2)C(=O)O[C@H]2CCOC2)cc1 [Compound 1006]
6,7.46,O=C(O[C@H]1CCOC1)N(CCc1ccccc1)C[C@H](O)CN(CC1CCCC1)S(=O)(=O)c1ccc(O)cc1 [Compound 1007]
7,6.59,Nc1ccc(S(=O)(=O)N(CC2CCCC2)C[C@@H](O)CN(CCc2ccccc2)C(=O)O[C@H]2CCOC2)cc1 [Compound 1008]
8,6.92,Nc1cccc(S(=O)(=O)N(CC2CCCC2)C[C@@H](O)CN(CCc2ccccc2)C(=O)O[C@H]2CCOC2)c1 [Compound 1009]
9,6.96,COc1ccc(S(=O)(=O)N(CC2CCCC2)C[C@@H](O)CN(CCC2CCCCC2)C(=O)O[C@H]2CCOC2)cc1 [Compound 1011]
10,6.70,CC(C)CN(C[C@@H](O)CN(CCc1ccccc1)C(=O)O[C@H]1CCOC1)S(=O)(=O)c1cccc(N)c1 [Compound 1012]
11,7.30,Nc1cccc(S(=O)(=O)N(CC2CCCC2)C[C@@H](O)CN(CCc2ccccc2)C(=O)O[C@@H]2COC3OCCC32)c1 (stereo partly drawn) [Compound 1013]
12,6.89,Nc1cccc(S(=O)(=O)N(CC2CCCC2)C[C@@H](O)CN(CCc2ccccc2)C(=O)OC2COCOC2)c1 [Compound 1014]
13,7.12,COc1ccc(S(=O)(=O)N(CC2CCCC2)C[C@@H](O)CN(CCc2ccc(O)cc2)C(=O)O[C@H]2CCOC2)cc1 [Compound 1016]
14,6.96,COc1ccc(S(=O)(=O)N(CC2CCCC2)C[C@@H](O)CN(CCc2ccc(O)c(O)c2)C(=O)O[C@H]2CCOC2)cc1 [Compound 1017]
15,6.77,COc1ccc(S(=O)(=O)N(CC2CCCC2)C[C@@H](O)CN(CCc2ccccc2)C(=O)Cc2ccccc2)cc1 [Compound 1020]
16,7.15,C=CCOC(=O)N(CCc1ccccc1)C[C@H](O)CN(CC1CCCC1)S(=O)(=O)c1ccc(OC)cc1 [Compound 1021]
17,7.28,O=C(OCc1cccnc1)N(CCc1ccccc1)C[C@H](O)CN(CC1CCCC1)S(=O)(=O)c1ccccc1 [Compound 1023]
18,7.18,COc1ccc(S(=O)(=O)N(CC2CCCC2)C[C@@H](O)CN(CCc2ccccc2)C(=O)c2cccc(O)c2C)cc1 [Compound 1024]
19,6.57,COc1ccc(S(=O)(=O)N(CC2CCCC2)C[C@@H](O)CN(CCc2cccnc2)C(=O)OCc2cccnc2)cc1 [Compound 1025]
20,7.70,COc1ccc(S(=O)(=O)N(CC2CCCC2)C[C@@H](O)CN(CCc2ccccc2)C(=O)c2ccccc2)cc1 [Compound 1026]
21,8.15,COc1ccc(S(=O)(=O)N(CC(O)CN(CCc2ccccc2)C(=O)[C@H](NC(=O)OCc2ccccc2)C(C)C)CC2CCCC2)cc1 (stereo partly drawn) [Compound 1027]
22,6.10,COc1ccc(S(=O)(=O)N(CC2CCCC2)C[C@@H](O)CN(CCc2ccccc2)CC(=O)c2ccccc2)cc1 [Compound 1028]
23,5.46,CCCN(CC(=O)c1ccccc1)C[C@H](O)CN(CC1CCCC1)S(=O)(=O)c1ccc(OC)cc1 [Compound 1029]

row,pKi,Compound
1,5.85,COc1ccc(S(=O)(=O)N(CC(C)C)C[C@@H](O)CC(=O)N2CCN(C(=O)OCc3ccccc3)C[C@H]2C(=O)NC(C)(C)C)cc1 [Compound 1031]
2,5.80,COc1ccc(S(=O)(=O)N(CC(C)C)C[C@@H](O)CCN2CCCC[C@H]2C(=O)NC(C)(C)C)cc1 [Compound 1033]
3,5.96,COc1ccc(S(=O)(=O)N(CC(C)C)C[C@@H](O)CCN(CC(C)C)S(=O)(=O)N(C)C)cc1 [Compound 1034]
4,5.44,COc1ccc(S(=O)(=O)N(CCc2ccccc2)CC[C@H](O)CN(CC(C)C)S(=O)(=O)c2ccc(OC)cc2)cc1 [Compound 1035]
5,5.10,COc1ccc(S(=O)(=O)N(CC(C)C)C[C@@H](O)CCN(CCc2ccccc2)C(=O)OC2COC3OCCC23)cc1 (stereo partly drawn) [Compound 1036]
6,< 5.00,COc1ccc(S(=O)(=O)N(CC(C)C)C[C@@H](O)CCN(CCc2ccccc2)C(=O)O[C@H]2CCOC2)cc1 [Compound 1037]
7,< 5.00,COc1ccc(S(=O)(=O)N(CC(C)C)C[C@H](O)CCN(CCc2ccccc2)C(=O)O[C@H]2CCOC2)cc1 [Compound 1038]
8,< 5.52,COc1ccc(S(=O)(=O)N(CC(C)C)C[C@@H](O)CCN(CC2CCCC2)C(=O)O[C@H]2CCOC2)cc1 [Compound 1039]
9,< 5.00,COc1ccc(S(=O)(=O)N(CC(C)C)C[C@H](O)CCN(CC2CCCC2)C(=O)O[C@H]2CCOC2)cc1 [Compound 1040]
10,6.57,COc1ccc(S(=O)(=O)N(CC(C)C)C[C@@H](O)CCN(CC2CCCC2)S(=O)(=O)c2cccc(N)c2)cc1 [Compound 1041]
11,6.66,Nc1cccc(S(=O)(=O)N(CC2CCCC2)C[C@@H](O)CN(CCc2ccccc2)C(=O)c2cccnc2)c1 [Compound 1044]
12,7.85,Nc1cccc(S(=O)(=O)N(CC2CCCC2)C[C@@H](O)CN(CCc2ccccc2)C(=O)c2ccncc2)c1 [Compound 1045]
13,5.92,COc1ccc(S(=O)(=O)N(CC(O)CN2C(=O)OC[C@@H]2Cc2ccccc2)CC2CCCC2)cc1 (stereo partly drawn) [Compound 1046]
14,5.80,COc1ccc(S(=O)(=O)N(CC2CCCC2)C[C@@H](O)CN(CCc2ccccc2)C(C)=O)cc1 [Compound 1047]
15,5.48,COc1ccc(S(=O)(=O)N(CC(O)CN2CC(c3ccccc3)c3ccccc3C2=O)CC2CCCC2)cc1 (stereo not drawn) [Compound 1048]
16,7.96,COc1ccc(S(=O)(=O)N(CC(C)C)C[C@@H](O)CC(Cc2ccccc2)C(=O)N[C@H]2c3ccccc3C[C@H]2O)cc1 (stereo partly drawn) [LII]
17,5.30,COc1ccc(S(=O)(=O)N(CC(C)C)C[C@@H](O)CC(Cc2ccccc2)C(=O)NCC(C)C)cc1 (stereo partly drawn) [LI]
18,6.78,COc1ccc(S(=O)(=O)N(CC[C@H](O)CN(CC(C)C)S(=O)(=O)c2ccc(OC)cc2)CC2CCCC2)cc1 [LVa]
19,5.57,COc1ccc(S(=O)(=O)N(CC[C@H](O)CN2CCN(C(=O)OCc3ccccc3)C[C@H]2C(=O)NC(C)(C)C)CC(C)C)cc1 [LXXVI]
20,6.40,COc1ccc(S(=O)(=O)N(CC[C@H](O)CN(CC(C)C)S(=O)(=O)c2ccc(OC)cc2)CC(C)C)cc1 [XLIVa]
21,5.48,COc1ccc(S(=O)(=O)N(CC[C@H](O)CN2CCCC[C@H]2C(=O)NC(C)(C)C)CC(C)C)cc1 [XLVIII]
22,6.80,CC(C)CN(C[C@@H](O)CCN(CC1CCCC1)S(=O)(=O)c1ccc(O)cc1)S(=O)(=O)c1ccc(O)cc1 [XLV]

row,Compound,pKi
1,COc1ccc(S(=O)(=O)N(CC2CCCC2)C[C@@H](O)CN(CCc2ccccc2)C(=O)OCc2ccccc2)cc1 [Compound 1019],7.70

# Same assay, conditions: read-out: Ki
row,pKi,Compound
1,7.52,COc1ccc(S(=O)(=O)N(CC2CCCC2)C[C@@H](O)CN(CCc2ccccc2)C(=O)O[C@H]2CCOC2)cc1 [Compound 1001]
